Laboratory results: article PMC11544091 (Nature Communications, 2024)

Biological target: T1, human A3R (Homo sapiens, UniProt P0DMS8)
T1 sequence (P0DMS8 1-318): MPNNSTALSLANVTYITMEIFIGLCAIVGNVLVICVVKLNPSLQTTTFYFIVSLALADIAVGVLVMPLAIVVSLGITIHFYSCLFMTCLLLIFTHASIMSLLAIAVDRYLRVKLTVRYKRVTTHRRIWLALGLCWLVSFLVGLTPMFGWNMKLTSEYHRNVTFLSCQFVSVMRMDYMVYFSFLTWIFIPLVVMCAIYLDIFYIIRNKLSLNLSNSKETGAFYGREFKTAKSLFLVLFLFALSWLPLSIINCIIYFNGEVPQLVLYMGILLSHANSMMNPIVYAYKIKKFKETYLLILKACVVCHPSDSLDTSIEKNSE
Assay: TGFα shedding assay, human A3R WT
Format: cell-based
Settings: for activation of A3R (in words): human A3R

| Compound | calculated intrinsic activity (RAi) relative to adenosine (A3R) [%] | activation of A3R (in words) | potency towards all four adenosine receptors (in words) (A1R, A2AR, A2BR, A3R) |
| --- | --- | --- | --- |
| CC(C)=CCNc1ncnc2c1ncn2[C@@H]1O[C@H](CO)[C@@H](O)[C@H]1O [i6A, N6-Isopentenyladenosine] | 59 | selectively activates A3R | – |
| C[C@@H](O)[C@H](NC(=O)Nc1ncnc2c1ncn2[C@@H]1O[C@H](CO)[C@@H](O)[C@H]1O)C(=O)O [t6A, N6-Threonylcarbamoyladenosine] | – | did not show any potency on A3R | – |
| CN(C)c1ncnc2c1ncn2[C@@H]1O[C@H](CO)[C@@H](O)[C@H]1O [m6,6A, N6,N6-Dimethyladenosine] | 7 | very weak activation of A3R | – |
| 1-methyladenosine [m^1A] | – | can also induce A3R activation | weak and non-selective potency |
